Source: patent US6911318B2, “Bacterial transglycosylases: assays for monitoring the activity using Lipid II substrate analogs and methods for discovering new antibiotics” (The Trustees of Princeton University, priority 1999, dated 2005)

Key:
transglycosylases = assay: modified membrane assay of radiolabeled Lipid II polymerization; format: biochemical; conditions: increasing concentrations of ramoplanin; FIG. 9
Source text: Ramoplanin (FIG. 8) is a cyclic glycolipodepsipeptide antibiotic that kills gram positive bacteria by inhibiting cell wall biosynthesis. Ramoplanin blocks the conversion of Lipid I to Lipid II, a reaction that is catalyzed by the intracellular GlcNAc transferase. MurG. It is proposed that ramoplanin inhibits MurG by complexing Lipid I, which prevents it from being utilized as a substrate. Unexpectedly ramoplanin is shown by this inventor to inhibit the polymerization of Lipid II; therefore another mechanism is discovered by which ramoplanin can kill bacterial cells through inhibition of the transglycosylation step of peptidoglycan synthesis. Using a synthetic analogue of Lipid II, the evidence is presented that enzyme inhibition by ramoplanin involves substrate binding. Unexpectedly, the ramoplanin complexes are found to self-associate to form observable fibrils. The mechanism of action of ramoplanin has been investigated in the past in permeabilized bacterial cells and membrane preparations by following the incorporation of radiolabel from a precursor into various intermediates along the pathway to peptidoglycan. […] The effect of ramoplanin on Lipid II polymerization is evaluated by monitoring the amount of radioactive peptidoglycan formed in the presence of increasing concentrations of ramoplanin. […]

[1] = NMR and CD titration of ramoplanin with compound 2; format: binding; conditions: NMR
Source text: The ability of ramoplanin to interact with 2 is investigated by NMR (FIG. 10). Unexpectedly, titration of ramoplanin with compound 2 caused the ramoplanin signals to disappear. Resonances for free 2 began to appear at a 1:1 ramoplanin:2 ratio. The disappearance of the ramoplanin resonances connotes a change in relaxation properties consistent with the formation of a high molecular weight species. A striking increase in the viscosity of the ramoplanin samples is evident upon the addition of compound 2. In addition, electron micrographs of the ramoplanin complexes show long fibrils (not shown). Thus, ramoplanin undergoes a ligand-induced polymerization process in the presence of 2. Ligand-induced polymerization of ramoplanin complexes implies a conformational change in ramoplanin. Therefore, one would expect a significant change in the far UV CD spectrum of ramoplanin upon adding 2. In fact, the CD spectrum for ramoplanin changes dramatically upon titration with 2 (FIG. 11). The appearance of a minimum at ˜210 nm is consistent with a model in which assembly into fibrils is mediated by hydrogen bonds between amides in the ramoplanin complexes, and is all likelihood related to the unusual pattern of D and L amino acids in the molecule. […]

[2] = tested on: transglycosylase present in bacterial membranes; assay: in vitro polymerization of biotinylated-[14C]-Lipid II by bacterial membrane protein, ascending chromatography; format: biochemical; conditions: 0.06 μg/ml Moenomycin, FIG. 7
Method: FIG. 7 discloses in vitro polymerization of biotinylated-[^14C]-Lipid II accomplished by incubation with bacterial membrane protein, and product is detected by ascending chromatography in isobutyric acid:1M NH4OH (5:3).
In FIG. 7, biotinylated Lipid II serves as a substrate for transglycosylase present in bacterial membranes. Control: incubation of bacterial membranes with biotinylated Lipid II, which is also labeled with [^14C] […] It is thus clear that any other bacterial cell wall inhibitor can be equally screened.

| Substance | effect on Lipid II polymerization (radioactive peptidoglycan formed) (transglycosylases) | binding to Lipid II analogue [1] | formation of peptidoglycan from biotinylated [14C]-Lipid II [2] |
| --- | --- | --- | --- |
| Ramoplanin | blocks the polymerization of Lipid II | binds to a synthetic analogue of Lipid II |  |
| moenomycin |  |  | inhibits formation of peptidoglycan |
